Consider 16 molecules from article PMC7508583, “Discovery and Preclinical Development of Antigiardiasis Fumagillol Derivatives” (Antimicrobial Agents and Chemotherapy, 2020).

Experiment in all cases: Trophozoite growth inhibition, ATP content (ATPlite) assay
In general terms: Cellular ATP, detected with luciferase, serves as a proxy for viable cell number.

For test [1], the system named is E. histolytica HM1:IMSS trophozoites. The class given is cell-based. The settings on record: Entamoeba histolytica, 72 h, read-out: Mean [IC50 ± SE(IC50)] E. histolytica HM1: IMSS. As for the experimental part:
(§1) Antigiardia assays followed by enzyme inhibition determination facilitated the selection of compounds for permeation and stability studies by in vitro methods, prior to advancing to in vivo studies. Compound potency was evaluated first by measuring G. lamblia trophozoite growth as a function of the compound concentration and calculating the IC50 values. Potency in Entamoeba histolytica trophozoites was also determined because of the early report that fumagillin cured amebiasis ([19]). The intent was to test whether the compounds would be suitable to treat gastrointestinal amebiasis rather than the invasive form of the disease, given that the designed strategy was based on reducing compound permeation across the epithelial cell barrier. […] Trophozoite growth was determined by monitoring the ATP cell content using a high-throughput homogeneous assay developed previously for G. lamblia ([57]). The ATP content serves as a marker of cell integrity since ATP degrades rapidly when cells die and the luminescence signal generated by luciferase requires ATP. The same assay was also adopted in 96-well plates for E. histolytica trophozoite growth measurement, as described in Materials and Methods. A similar E. histolytica trophozoite ATP content assay was described previously ([58]). Fumagillin, TNP-470, and a standard-of-care drug (metronidazole) served as positive controls, and cells without the drug (in the presence of 0.5% dimethyl sulfoxide [DMSO]) served as the negative control.
E. histolytica strain HM1:IMSS trophozoites were grown at 37°C in TYI-S-33 medium supplemented with penicillin (100 U/ml) and streptomycin sulfate (100 μg/ml) ([65]). Trophozoites were grown anaerobically in borosilicate tubes or T25 flasks, and subcultures were made 1 to 2 times a week. Trophozoites were detached for inoculation by chilling the cultures on ice for 20 min.
The growth inhibition assays were performed in duplicate, once for each compound, for all compounds except fumagillin, which served as a positive control and whose inhibitory ability was measured multiple times as new sets of compounds were tested. All dry compounds except for fumagillin were dissolved in dimethyl sulfoxide (DMSO; Sigma) at a stock concentration of 10 mM and then diluted 1:100 in growth medium to a final compound concentration of 100 μM; fumagillin was diluted to 20 μM. Compound solution aliquots (100 μl) were prepared by 3-fold serial dilutions in growth medium containing 0.5% DMSO and distributed into 96-well assay plates. This was followed by the addition of 10 μl G. lamblia or E. histolytica culture containing 10,000 trophozoites. Fumagillin served as a positive control, and the medium-diluted DMSO alone served as a negative control. The assay plates were placed in a BD GasPak EZ container system (BD Diagnostics) to create an anaerobic growth environment. […] Following incubation, 70 μl/well of the ATPlite reagent (PerkinElmer) was added to the assay plates for one-step lysis and ATP level detection. The luminescent signals of the assay plates were measured on an EnSpire 2300 plate reader (PerkinElmer). Concentration-response titration points for each compound were fitted to a 4-parameter logistic nonlinear regression model using the KaleidaGraph tool, yielding the IC50 value and standard error (SE).

Test [2] concerns G. lamblia WB trophozoites. Type of test: cell-based. The settings on record: Giardia duodenalis, 72 h, read-out: Mean [IC50 ± SE(IC50)] G. lamblia WB. As for the experimental part: as §1
(§2) Trophozoites of G. lamblia isolates WB and GS were grown anaerobically in borosilicate glass screw-cap culture tubes (Fisher Scientific) at pH 7.0 in Keister’s modified TYI-S-33 medium (ATCC). The medium was supplemented with 10% heat-inactivated bovine serum (Sigma-Aldrich) and 0.05% bovine bile (Sigma-Aldrich). To attain low-oxygen-tension conditions, the tubes were filled to 85% to 90% of their total volume capacity and incubated without shaking at 37°C. Subcultures (2 × 10^5 trophozoites per tube) were made three times a week. Detachment of trophozoites for inoculation was achieved by chilling the cultures on ice for 20 min. Culturing and detachment of metronidazole-resistant G. lamblia assemblage A 713M3 and assemblage B 1279-M1 trophozoites followed the same protocol, except that the growth medium was supplemented with metronidazole, with the concentration gradually being increased to 10 μM.
(§3) The growth inhibition assays were performed in duplicate, once for each compound, for all compounds except fumagillin, which served as a positive control and whose inhibitory ability was measured multiple times as new sets of compounds were tested. All dry compounds except for fumagillin were dissolved in dimethyl sulfoxide (DMSO; Sigma) at a stock concentration of 10 mM and then diluted 1:100 in growth medium to a final compound concentration of 100 μM; fumagillin was diluted to 20 μM. Compound solution aliquots (100 μl) were prepared by 3-fold serial dilutions in growth medium containing 0.5% DMSO and distributed into 96-well assay plates. This was followed by the addition of 10 μl G. lamblia or E. histolytica culture containing 10,000 trophozoites. Fumagillin served as a positive control, and the medium-diluted DMSO alone served as a negative control. The assay plates were placed in a BD GasPak EZ container system (BD Diagnostics) to create an anaerobic growth environment. The sealed containers were incubated at 37°C for 72 h. Following incubation, 70 μl/well of the ATPlite reagent (PerkinElmer) was added to the assay plates for one-step lysis and ATP level detection. The luminescent signals of the assay plates were measured on an EnSpire 2300 plate reader (PerkinElmer). Concentration-response titration points for each compound were fitted to a 4-parameter logistic nonlinear regression model using the KaleidaGraph tool, yielding the IC50 value and standard error (SE).

In test [3] the test system is G. lamblia GS trophozoites. The class given is cell-based, Giardia lamblia. The settings on record: for IC50: Giardia duodenalis, 72 h, read-out: Mean [IC50 ± SE(IC50)] G. lamblia GS. As for the experimental part:
as §1, §2, §3

Where [4] appears, read: trophozoite growth, ATP content.

Like-named read-outs stand apart in the source and are kept apart here.

A word on the IC50: it is the concentration at which inhibition is half-maximal. For `COC1C(OC(=O)Nc2ccccc2)CCC2(CO2)C1C1(C)OC1CC=C(C)C` (centres unmarked) [Compound 7], the figures for the 50% inhibitory concentration (IC50) in test [1] (setting [4]), in test [2] (setting [4]) and in test [3] (setting [4]) were 14.6 ± 2.6 nM, 3.7 ± 1 nM and 7 ± 1 nM, respectively.

Turning to `COC1C(OC(=O)NC(=O)CN2CCCCC2)CCC2(CO2)C1C1(C)OC1CC=C(C)C` (centres unmarked) [Compound 2], the IC50 in test [1] (setting [4]) was 435 ± 79 nM; in test [2] (setting [4]) it was 90.9 ± 34.3 nM; in test [3] (setting [4]), 82.5 ± 26.4 nM.

Turning to `CO[C@@H]1[C@H](OC(=O)Nc2ccc(C(=O)N3CCC(O)CC3)cc2)CC[C@]2(CO2)[C@H]1[C@@]1(C)O[C@@H]1CC=C(C)C` [Compound 10, (3R,4S,5S,6R)-5-methoxy-4-((2R,3R)-2-methyl-3-(3-methylbut-2-en-1-yl)oxiran-2-yl)-1-oxaspiro[2.5]octan-6-yl (4-(4-hydroxypiperidine-1-carbonyl)phenyl)carbamate], the IC50 in test [1] was 32 ± 2.1 nM; in test [2], 171 ± 21 nM; in test [3], 38.4 ± 3.4 nM.

Turning to `COC1C(OC(=O)N2CCCCC2)CCC2(CO2)C1C1(C)OC1CC=C(C)C` (centres unmarked) [Compound 15], the IC50 in test [1] (setting [4]) was determined as 7.8 ± 0.6 nM; in test [2] (setting [4]), 4.9 ± 2.2 nM; in test [3] (setting [4]), 2.9 ± 0.8 nM.

As to `COC1C(OC(=O)NC(=O)CN(C)C)CCC2(CO2)C1C1(C)OC1CC=C(C)C` (centres unmarked) [Compound 1], the results for the IC50 in test [1] (setting [4]), in test [2] (setting [4]) and in test [3] (setting [4]) were 4.7 ± 0.5 nM, 2 ± 0.2 nM and 2.4 ± 0.5 nM, respectively.

For the molecule `CO[C@@H]1[C@H](OC(=O)NC(=O)CCl)CC[C@]2(CO2)[C@H]1[C@@]1(C)O[C@@H]1CC=C(C)C` [TNP-470, (3R,4S,5S,6R)-5-methoxy-4-((2R,3R)-2-methyl-3-(3-methylbut-2-en-1-yl)oxiran-2-yl)-1-oxaspiro[2.5]octan-6-yl (2-chloroacetyl)carbamate, reference compound], the IC50 came out at 2.6 ± 0.2 nM in test [2] and 3.4 ± 0.7 nM in test [3].

On to `COC1C(OC(=O)N2CCN(c3ccccc3)CC2)CCC2(CO2)C1C1(C)OC1CC=C(C)C` (centres unmarked) [Compound 17], for which the IC50 in test [1] (setting [4]) is > 100000 nM; in test [2] (setting [4]) it was 251 ± 70 nM; in test [3] (setting [4]), 109 ± 13.7 nM. For the same molecule, the “fold loss of potency compared to compound 16” value in test [3] (G. lamblia trophozoites) is 100 fold.

With `COC1C(OC(=O)NCC(=O)O)CCC2(CO2)C1C1(C)OC1CC=C(C)C` (centres unmarked) [Compound 14], the figures for the IC50 in test [1] (setting [4]), in test [2] (setting [4]) and in test [3] (setting [4]) were 11200 ± 123 nM, > 100000 nM and > 100000 nM, respectively.

As to `CCOC(=O)CO[C@@H]1CC[C@]2(CO2)[C@@H]([C@@]2(C)O[C@@H]2CC=C(C)C)[C@@H]1OC` [Compound 18, ethyl 2-(((3R,4S,5S,6R)-5-methoxy-4-((2R,3R)-2-methyl-3-(3-methylbut-2-en-1-yl)oxiran-2-yl)-1-oxaspiro[2.5]octan-6-yl)oxy)acetate], the values for the IC50 in test [1], in test [2] and in test [3] were 318 ± 16 nM, 42.6 ± 17.5 nM and 40.1 ± 4.8 nM, respectively.

As for `COC1C(OC(=O)NC(=O)CN2CCN(C)CC2)CCC2(CO2)C1C1(C)OC1CC=C(C)C` (centres unmarked) [Compound 5], the results for the IC50 in test [1] (setting [4]), in test [2] (setting [4]) and in test [3] (setting [4]) were 117 ± 8.4 nM, 22.3 ± 1.4 nM and 12.3 ± 2.5 nM, respectively.

Turning to `COC1C(OC(=O)NC(=O)CN2CCN(CCO)CC2)CCC2(CO2)C1C1(C)OC1CC=C(C)C` (centres unmarked) [Compound 6], the IC50 came out at 223 ± 29.8 nM in test [1] (setting [4]), 53.6 ± 10.6 nM in test [2] (setting [4]) and 37 ± 4.4 nM in test [3] (setting [4]).

Take `CO[C@@H]1[C@H](O)CC[C@]2(CO2)[C@H]1[C@@]1(C)O[C@@H]1CC=C(C)C` [Fumagillol]: the IC50 in test [3] is 3400 ± 489 nM.

In the case of `COC1C(OCC(=O)O)CCC2(CO2)C1C1(C)OC1CC=C(C)C` (centres unmarked) [Compound 19], the IC50 in test [1] (setting [4]), in test [2] (setting [4]) and in test [3] (setting [4]) was > 2000 nM throughout.

Regarding `CCOC(=O)CNC(=O)OC1CCC2(CO2)C(C2(C)OC2CC=C(C)C)C1OC` (centres unmarked) [Compound 13], the IC50 in test [1] was 23.7 ± 2.6 nM; in test [2], 13.1 ± 2.4 nM; in test [3], 1.5 ± 0.3 nM.

For the molecule `COC1C(OC(=O)Nc2ccc(CC(=O)O)cc2)CCC2(CO2)C1C1(C)OC1CC=C(C)C` (centres unmarked) [Compound 12], the IC50 worked out at 94 ± 6.8 nM in test [1] (setting [4]), 342 ± 50 nM in test [2] (setting [4]) and 63.2 ± 10 nM in test [3] (setting [4]).

For `CCOC(=O)c1ccc(NC(=O)OC2CCC3(CO3)C(C3(C)OC3CC=C(C)C)C2OC)cc1` (centres unmarked) [Compound 8], the figures for the IC50 in test [1] (setting [4]), in test [2] (setting [4]) and in test [3] (setting [4]) were 54 ± 4.3 nM, 12.5 ± 4.2 nM and 27.2 ± 18.1 nM, respectively. Further, the “fold less active than compound 7” value in test [3] (trophozoite IC50) is ~4 fold.
